Measured values from patent publication US20110053773A1, “METHODS OF IMPROVING NUTRITIONAL VALUE OF PLANTS” (UNIVERSITY OF TENNESSEE RESEARCH FOUNDATION, priority 2009, published 2011).

How the values were obtained:
[1] = test system: kale ‘Red Russian’; assay: Yield, fresh weight of kale after insecticide, fungicide and PGRs (Example 4, Table 12); format: in vivo; details: 28 DA-A, Untreated Check 106.9
Experimental: (§1) Greenhouse and laboratory studies were conducted to ascertain the tolerance and nutritional quality differences following postemergence applications of the insecticide chlorpyrifos, the fungicide chlorothalonil, the PGRs mepiquat-chloride and paclobutrazol, and the safeners napthalic anhydride and isoxadifen-ethyl on kale ‘Red Russian’ and basil ‘Genovese’. Visual injury was rated based on general phytotoxicity, chlorosis, and visual stunting and each measurement was based on a percent scale from 0 to 100 where 0 equals no visual response and 100 equals complete plant death. Kale and basil were both harvested approximately 4 weeks after treatments and plants were pooled over replicates for content analysis of crude protein, crude amino acid content, acid detergent fiber, neutral detergent fiber, total fatty acids, and/or key mineral content (including Na, Ca, P, Mg, K, Fe, Mn, Zn, and Cu). In addition, the amounts of key individual amino acids (aspartic acid, threonine, glutamic acid, proline, glycine, cysteine, valine, leucine, isoleucine, methionine, and lysine) and composite classifications of fatty acid (saturated fatty acids, monounsaturated fatty acids, polyunsaturated fatty acids) were also analyzed from these sub-samples for kale (Tables 10-14).

[2] = test system: basil ‘Genovese’; assay: Yield, fresh weight of basil after insecticide, fungicide, PGRs and safeners (Example 4, Table 10); format: in vivo; details: DA-A, check 31.8
Method in brief: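 Plants were harvested about 4 weeks post-treatment and pooled across replicates to analyse protein, amino acids, fiber, fatty acids and minerals (Na, Ca, P, Mg, K, Fe, Mn, Zn, Cu). Treatments were postemergence insecticide, fungicide, PGRs and safeners. Visual injury scored 0–100% (phytotoxicity, chlorosis, stunting).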

[3] = test system: kale 'Red Russian'; assay: Content analysis of kale: protein, amino acids, fiber, fatty acids, minerals (Example 4, Tables 12-14); format: in vivo; details: 28 DA-A; for Alanine, Percent Increase over the Untreated Check (on a % dry matter basis) / Aspartic acid, Percent Increase over the Untreated Check (on a % dry matter basis) / Cysteine, Percent Increase over the Untreated Check (on a % dry matter basis) / Glutamic acid, Percent Increase over the Untreated Check (on a % dry matter basis) / Glycine, Percent Increase over the Untreated Check (on a % dry matter basis) / Iso-leucine, Percent Increase over the Untreated Check (on a % dry matter basis) / Leucine, Percent Increase over the Untreated Check (on a % dry matter basis) / Lysine, Percent Increase over the Untreated Check (on a % dry matter basis) / Methionine, Percent Increase over the Untreated Check (on a % dry matter basis) / Proline, Percent Increase over the Untreated Check (on a % dry matter basis) / Threonine, Percent Increase over the Untreated Check (on a % dry matter basis) / Total Amino acids, Percent Increase over the Untreated Check (on a % dry matter basis) / Total Protein, Percent Increase over the Untreated Check (on a % dry matter basis) / Valine, Percent Increase over the Untreated Check (on a % dry matter basis): chlorothalonil ###
Experimental: as §1

[4] = test system: basil 'Genovese'; assay: Visual injury of basil after insecticide, fungicide, PGRs, safeners (Example 4); details: 7 DA-A
Method in brief: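 Postemergence greenhouse applications of chlorpyrifos, chlorothalonil, mepiquat-chloride, paclobutrazol, napthalic anhydride or isoxadifen-ethyl. Injury rated visually for phytotoxicity, chlorosis and stunting on a 0–100% scale (0 = no response, 100 = plant death). Plants harvested ~4 weeks after treatment, pooled over replicates for nutrient content analysis.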

[5] = rates g ai/ha: chlropyrifos 1120, chlorothalonil 2630, paclobutrazol 3.23, mepiquat-chloride 12.3, + NIS 0.25 % v/v
[6] = rates g ai/ha: chlropyrifos 3370, chlorothalonil 7900, paclobutrazol 9.7, mepiquat-chloride 37, + NIS 0.25 % v/v
[7] = rates g ai/ha: chlropyrifos 1120, chlorothalonil 2630, paclobutrazol 3.23, mepiquat-chloride 12.3, Isoxadifen 8, Napthalic anhydride 264, + NIS 0.25 % v/v
[8] = rates g ai/ha: chlropyrifos 3370, chlorothalonil 7900, paclobutrazol 9.7, mepiquat-chloride 37, Isoxadifen 16, Napthalic anhydride 527, + NIS 0.25 % v/v
[9] = first-listed rate g ai/ha: chlropyrifos ###, paclobutrazol 3.2, mepiquat-chloride 12, + NIS 0.3 % v/v
[10] = second-listed rate g ai/ha: chlropyrifos ###, paclobutrazol 9.7, mepiquat-chloride 37, + NIS 0.3 % v/v

For `C[N+]1(C)CCCCC1` [mepiquat-chloride], the “Yield Fresh weight” value [1, 5] was 101.8 grams, the “Yield Fresh weight” value [1, 6] was 101.2 grams and the “Yield Fresh weight” value [2, 7] was 36.9 grams. For the same molecule, the “Yield Fresh weight” value [2, 8] was 35.6 grams, the “Alanine, Percent Increase over the Untreated Check (on a % dry matter basis)” value [3, 9] was 5 % check and the “Aspartic acid, Percent Increase over the Untreated Check (on a % dry matter basis)” value [3, 9] was 6 % check. The “Cysteine, Percent Increase over the Untreated Check (on a % dry matter basis)” value [3, 9] was 6 % check, the “Glutamic acid, Percent Increase over the Untreated Check (on a % dry matter basis)” value [3, 9] was 11 % check and the “Glycine, Percent Increase over the Untreated Check (on a % dry matter basis)” value [3, 9] was 4 % check. For the same molecule, the “Iso-leucine, Percent Increase over the Untreated Check (on a % dry matter basis)” value [3, 9] was 6 % check, the “Leucine, Percent Increase over the Untreated Check (on a % dry matter basis)” value [3, 9] was 4 % check and the “Lysine, Percent Increase over the Untreated Check (on a % dry matter basis)” value [3, 9] was 6 % check. The “Methionine, Percent Increase over the Untreated Check (on a % dry matter basis)” value [3, 9] was 4 % check, the “Proline, Percent Increase over the Untreated Check (on a % dry matter basis)” value [3, 9] was 8 % check and the “Threonine, Percent Increase over the Untreated Check (on a % dry matter basis)” value [3, 9] was 6 % check. For the same molecule, the “Total Amino acids, Percent Increase over the Untreated Check (on a % dry matter basis)” value [3, 9] was 6 % check, the “Total Protein, Percent Increase over the Untreated Check (on a % dry matter basis)” value [3, 9] was 4 % check and the “Valine, Percent Increase over the Untreated Check (on a % dry matter basis)” value [3, 9] was 5 % check. For the same molecule, the “ADF, Percent Increase Over the Untreated Check (on a % dry matter basis)” value [3, 5] was 7 % check, the “Calcium, Percent Increase Over the Untreated Check (on a % dry matter basis)” value [3, 5] was −4 % check and the “Copper, Percent Increase Over the Untreated Check (on a % dry matter basis)” value [3, 5] was 0 % check. The “Iron, Percent Increase Over the Untreated Check (on a % dry matter basis)” value [3, 5] was −5 % check, the “Magnesium, Percent Increase Over the Untreated Check (on a % dry matter basis)” value [3, 5] was −3 % check and the “Manganese, Percent Increase Over the Untreated Check (on a % dry matter basis)” value [3, 5] was −2 % check. For the same molecule, the “NDF, Percent Increase Over the Untreated Check (on a % dry matter basis)” value [3, 5] was −2 % check, the “Phosphorous, Percent Increase Over the Untreated Check (on a % dry matter basis)” value [3, 5] was 1 % check and the “Potassium, Percent Increase Over the Untreated Check (on a % dry matter basis)” value [3, 5] was −5 % check. For the same molecule, the “Sodium, Percent Increase Over the Untreated Check (on a % dry matter basis)” value [3, 5] was 4 % check, the “Zinc, Percent Increase Over the Untreated Check (on a % dry matter basis)” value [3, 5] was −5 % check and the “ADF, Percent Increase Over the Untreated Check (on a % dry matter basis)” value [3, 6] was −2 % check. The “Calcium, Percent Increase Over the Untreated Check (on a % dry matter basis)” value [3, 6] was −3 % check, the “Copper, Percent Increase Over the Untreated Check (on a % dry matter basis)” value [3, 6] was −6 % check and the “Iron, Percent Increase Over the Untreated Check (on a % dry matter basis)” value [3, 6] was −4 % check. The “Magnesium, Percent Increase Over the Untreated Check (on a % dry matter basis)” value [3, 6] was 0 % check, the “Manganese, Percent Increase Over the Untreated Check (on a % dry matter basis)” value [3, 6] was −7 % check and the “NDF, Percent Increase Over the Untreated Check (on a % dry matter basis)” value [3, 6] was −7 % check. The “Phosphorous, Percent Increase Over the Untreated Check (on a % dry matter basis)” value [3, 6] was 1 % check, the “Potassium, Percent Increase Over the Untreated Check (on a % dry matter basis)” value [3, 6] was −1 % check and the “Sodium, Percent Increase Over the Untreated Check (on a % dry matter basis)” value [3, 6] was 4 % check. The “Zinc, Percent Increase Over the Untreated Check (on a % dry matter basis)” value [3, 6] was −10 % check, the “Alanine, Percent Increase over the Untreated Check (on a % dry matter basis)” value [3, 10] was −4 % check and the “Aspartic acid, Percent Increase over the Untreated Check (on a % dry matter basis)” value [3, 10] was −2 % check. For the same molecule, the “Cysteine, Percent Increase over the Untreated Check (on a % dry matter basis)” value [3, 10] was −6 % check, the “Glutamic acid, Percent Increase over the Untreated Check (on a % dry matter basis)” value [3, 10] was −2 % check and the “Glycine, Percent Increase over the Untreated Check (on a % dry matter basis)” value [3, 10] was −7 % check. For the same molecule, the “Iso-leucine, Percent Increase over the Untreated Check (on a % dry matter basis)” value [3, 10] was −3 % check, the “Leucine, Percent Increase over the Untreated Check (on a % dry matter basis)” value [3, 10] was −4 % check and the “Lysine, Percent Increase over the Untreated Check (on a % dry matter basis)” value [3, 10] was −1 % check. The “Methionine, Percent Increase over the Untreated Check (on a % dry matter basis)” value [3, 10] was −4 % check, the “Proline, Percent Increase over the Untreated Check (on a % dry matter basis)” value [3, 10] was 2 % check and the “Threonine, Percent Increase over the Untreated Check (on a % dry matter basis)” value [3, 10] was −1 % check. The “Total Amino acids, Percent Increase over the Untreated Check (on a % dry matter basis)” value [3, 10] was −2 % check, the “Total Protein, Percent Increase over the Untreated Check (on a % dry matter basis)” value [3, 10] was 0 % check and the “Valine, Percent Increase over the Untreated Check (on a % dry matter basis)” value [3, 10] was −2 % check. For the same molecule, the “Phytotoxicity Chlorosis” value [4, 7] was 3%, the “Phytotoxicity General” value [4, 7] was 2% and the “Phytotoxicity Stunting” value [4, 7] was 3%. The “Phytotoxicity Chlorosis” value [4, 8] was 5%.
